Data from patent publication US20230026271A1, “Piperazine Compounds for Inhibiting CPS1” (Eisai R&D Management Co., Ltd., priority 2019, published 2023).
pIC50: −log10 of the molar value.

Target: T1, CPS1 (Homo sapiens, UniProt P31327)
T1 construct: The full length, human CPS1 gene was cloned into pFastBac HTA; His6 (from the pFastBac HTA vector); made in house; host or cells: SF21 insect cells (baculovirus, Bac-to-bac)
T1 sequence (P31327 39-1500): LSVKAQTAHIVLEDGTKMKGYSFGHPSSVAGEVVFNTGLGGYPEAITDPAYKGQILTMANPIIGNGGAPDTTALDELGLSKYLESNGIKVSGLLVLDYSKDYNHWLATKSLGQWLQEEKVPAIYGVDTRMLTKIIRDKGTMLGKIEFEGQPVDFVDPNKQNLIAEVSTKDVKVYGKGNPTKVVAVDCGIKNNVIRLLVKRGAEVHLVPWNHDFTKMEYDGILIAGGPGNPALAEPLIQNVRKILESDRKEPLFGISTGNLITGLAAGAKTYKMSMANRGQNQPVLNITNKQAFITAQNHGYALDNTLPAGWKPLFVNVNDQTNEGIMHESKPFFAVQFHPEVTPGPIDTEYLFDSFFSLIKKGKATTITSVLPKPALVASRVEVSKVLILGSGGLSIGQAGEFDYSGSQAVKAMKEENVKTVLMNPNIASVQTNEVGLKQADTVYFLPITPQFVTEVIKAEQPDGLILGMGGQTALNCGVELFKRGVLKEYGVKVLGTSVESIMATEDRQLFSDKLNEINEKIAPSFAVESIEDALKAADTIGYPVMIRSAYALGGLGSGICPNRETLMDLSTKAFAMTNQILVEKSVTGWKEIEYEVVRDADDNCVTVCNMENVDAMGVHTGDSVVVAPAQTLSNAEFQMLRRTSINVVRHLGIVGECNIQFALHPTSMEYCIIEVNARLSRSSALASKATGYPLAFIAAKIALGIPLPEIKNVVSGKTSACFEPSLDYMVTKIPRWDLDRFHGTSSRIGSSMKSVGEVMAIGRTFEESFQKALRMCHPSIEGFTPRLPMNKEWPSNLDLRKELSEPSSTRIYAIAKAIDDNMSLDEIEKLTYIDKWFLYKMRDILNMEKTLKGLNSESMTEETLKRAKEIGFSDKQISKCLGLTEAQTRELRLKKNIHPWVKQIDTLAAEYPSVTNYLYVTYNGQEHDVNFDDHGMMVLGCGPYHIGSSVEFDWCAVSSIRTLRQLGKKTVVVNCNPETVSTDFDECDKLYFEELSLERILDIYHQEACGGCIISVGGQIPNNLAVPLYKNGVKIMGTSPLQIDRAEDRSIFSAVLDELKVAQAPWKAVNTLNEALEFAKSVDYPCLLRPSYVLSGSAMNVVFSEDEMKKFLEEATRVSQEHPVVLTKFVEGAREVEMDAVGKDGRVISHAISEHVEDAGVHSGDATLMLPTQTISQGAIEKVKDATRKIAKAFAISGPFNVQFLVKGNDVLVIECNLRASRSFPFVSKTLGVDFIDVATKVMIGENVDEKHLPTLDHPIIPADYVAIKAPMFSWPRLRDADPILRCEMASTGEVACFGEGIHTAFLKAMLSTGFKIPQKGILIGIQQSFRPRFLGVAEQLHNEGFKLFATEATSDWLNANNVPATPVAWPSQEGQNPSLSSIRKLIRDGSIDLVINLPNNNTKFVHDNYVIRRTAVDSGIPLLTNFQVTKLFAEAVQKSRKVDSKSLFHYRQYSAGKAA
Assay: Assay 2 - Transcreener ADP FP assay (ADP formation from CPS1)
Format: biochemical
Settings: 10 nM CPS1, varying amounts of ATP, 60 min, fluorescence polarization
Protocol: CPS1 was expressed and purified from SF21 insect cells. The full length, human CPS1 gene was cloned into pFastBac HTA and baculovirus was generated using the Bac-to-bac expression system from Invitrogen. P3 virus was used to infect SF21 insect cells at a density of 1.5E6 cells/mL at an MOI of 2. Cells were harvested by centrifugation after 60 hrs and the cell pellet resuspended in lysis buffer (50 mM glycyl glycine pH 7.4, 20 mM KCl, 1 mM TCEP, 10% glycerol and 20 mM imidazole with Roche protease inhibitor tablet) before being lysed with 40 strokes of a Dounce homogenizer on ice. The insoluble fraction of the lysate was then cleared by centrifugation at 30,000 rpm for 30 min. 40 mL of supernatant was mixed with 2 mL of Ni NTA beads for 45 min at 4° C. in a 50 mL conical tube.
The beads were washed with 40 mL of wash buffer (50 mM glycyl glycine pH 7.4, 500 mM NaCl, 1 mM TCEP, 10% glycerol and 50 mM imidazole) by centrifugation and resuspension of the beads three times. Bound CPS1 protein was eluted in 6 mL of elution buffer (50 mM glycyl glycine pH 7.4, 500 mM NaCl, 1 mM TCEP, 10% glycerol and 250 mM imidazole) three times. Elution fractions were combined and concentrated using an Amicon Ultra centrifugation filter with a 10,000 molecular weight cut off. […]
ADP formation from CPS1 was measured in an endpoint assay using the Transcreener ADP FP kit from BellBbrook (Cat #3010-1K).

## COc1ccc(C(=O)N2[C@H](C)CN(C(=O)c3cc(OC)ccc3F)C[C@@H]2C)c(F)c1 [Compound 108, ((3S,5R)-4-(2-fluoro-4-methoxybenzoyl)-3,5-dimethylpiperazin-1-yl)(2-fluoro-5-methoxyphenyl)methanone]
  pIC50: < 4.18
